According to patent US6407257B1, “Derivatives of erythromycin, their preparation process and their use as medicaments” (Aventis Pharma S.A., priority 1998, dated 2002):

What was measured:
[1] = tested on: Streptococcus pyogenes; test: Method of dilutions in liquid medium (minimal inhibitory concentration); format: cell-based; conditions: incubation 24 hours at 37° C., growth inhibition by transillumination
Protocol: (§1) A—Method of Dilutions in Liquid Medium A series of tubes were prepared in which the same quantity of nutritive sterile medium is distributed. Increasing quantities of the product to be studied are distributed into each tube, then each tube is sown with a bacterial strain. After incubation for 24 hours in a heating chamber at 37° C., the growth inhibition is evaluated by transillumination, which allows the minimal inhibitory concentrations to be determined, expressed in micrograms/cm^3. The following results were obtained

[2] = tested on: Streptococcus pneumoniae; test: as above; format: cell-based; conditions: incubation 24 hours at 37° C., growth inhibition by transillumination
Protocol: as §1

| Molecule | minimal inhibitory concentrations [1] [micrograms/cm^3] | minimal inhibitory concentrations [2] [micrograms/cm^3] |
| --- | --- | --- |
| 2-Fluoro-11,12-dideoxy-3-de[(2,6-dideoxy-3-C-methyl-3-0-methyl-alpha-L-ribohexopyranosyl)oxy]-6-0-methyl-3-oxo-12,11-[oxycarbonyl[[4-[4-(4-aminophenyl)-1H-imidazol-1-yl]butyl]imino]]-eryrthromycin [EX. 2] | 0.3 | 0.150 |
| CCC1OC(=O)C(C)C(=O)C(C)C(OC2OC(C)CC(N(C)C)C2O)C(C)(OC)CC(C)C(=O)C(C)C2N(CCCCn3cnc(-c4ccc(N)cc4)c3)C(=O)OC12C [EX. 1, 11,12-Dideoxy-3-de[(2,6-dideoxy-3-C-methyl-3-0-methyl-alpha-L-ribohexopyranosyl)oxy]-6-0-methyl-3-oxo-12,11-[oxycarbonyl-[[4-[4-(4-aminophenyl)-1H-imidazol-1-yl]butyl]imino]]-eryrthromycin] | 2.5 | 1.2 |
